{"source": "BindingDB's records for patent WO2022076764", "about": "(BRISTOL-MYERS SQUIBB COMPANY, 2022)", "key": {"[1]": {"target": "T1, N-formyl peptide receptor 2 (Homo sapiens, UniProt P25090)", "T1 sequence (P25090 whole entry)": "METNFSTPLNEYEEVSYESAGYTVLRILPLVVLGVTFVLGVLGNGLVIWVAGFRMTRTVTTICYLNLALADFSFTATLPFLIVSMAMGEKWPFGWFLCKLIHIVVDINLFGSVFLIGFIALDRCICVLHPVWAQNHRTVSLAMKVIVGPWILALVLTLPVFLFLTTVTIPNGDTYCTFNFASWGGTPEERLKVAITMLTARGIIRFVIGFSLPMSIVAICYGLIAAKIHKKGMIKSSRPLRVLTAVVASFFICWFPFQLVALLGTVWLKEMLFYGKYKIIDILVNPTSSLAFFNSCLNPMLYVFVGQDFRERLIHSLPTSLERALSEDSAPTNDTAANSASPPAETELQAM"}, "[2]": {"target": "T2, fMet-Leu-Phe receptor (Homo sapiens, UniProt P21462)", "T2 sequence (P21462 whole entry)": "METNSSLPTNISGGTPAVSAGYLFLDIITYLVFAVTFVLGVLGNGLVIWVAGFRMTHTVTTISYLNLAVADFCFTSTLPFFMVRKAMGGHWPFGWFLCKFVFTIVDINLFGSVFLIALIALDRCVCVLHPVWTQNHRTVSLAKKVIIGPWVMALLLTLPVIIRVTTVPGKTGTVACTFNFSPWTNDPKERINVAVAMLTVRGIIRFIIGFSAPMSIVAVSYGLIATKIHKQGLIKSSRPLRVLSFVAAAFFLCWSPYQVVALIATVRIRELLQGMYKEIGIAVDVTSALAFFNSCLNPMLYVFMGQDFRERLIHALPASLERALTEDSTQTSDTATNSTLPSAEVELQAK"}}, "data": [{"smiles": "COc1cc(F)c(-n2cc(-c3ccnc(Cl)c3)nc2NC(=O)c2ccc(OC(F)F)cc2)c(F)c1", "note": "[WO2022076764, Example 34]", "values": [{"measurement": "EC50", "setting": "[1]", "result": 120, "unit": "nM"}, {"measurement": "EC50", "setting": "[2]", "result": 16, "unit": "nM"}]}, {"smiles": "COc1cc(F)c(-n2cc(-c3nccs3)nc2NC(=O)c2ccc(OC(F)F)cc2)c(F)c1", "note": "[WO2022076764, Example 40]", "values": [{"measurement": "EC50", "setting": "[1]", "result": 1000, "unit": "nM"}, {"measurement": "EC50", "setting": "[2]", "result": 11, "unit": "nM"}]}, {"smiles": "COc1ccc(-n2cc(-c3nc4ccccc4s3)nc2NC(=O)c2ccc(OC(F)F)cc2)cc1", "note": "[WO2022076764, Example 23]", "values": [{"measurement": "EC50", "setting": "[1]", "result": 44, "unit": "nM"}, {"measurement": "EC50", "setting": "[2]", "result": 28, "unit": "nM"}]}, {"smiles": "COc1cc(F)c(-n2cc(C3CCNCC3)nc2NC(=O)c2ccc(OC(F)F)cc2)c(F)c1", "note": "[WO2022076764, Example 63]", "values": [{"measurement": "EC50", "setting": "[1]", "result": 710, "unit": "nM"}, {"measurement": "EC50", "setting": "[2]", "result": 10, "unit": "nM"}]}, {"smiles": "COc1cc(F)c(-n2cc(-c3ccc(C)cc3)nc2NC(=O)c2ccc(OC(F)F)cc2)c(F)c1", "note": "[WO2022076764, Example 15]", "values": [{"measurement": "EC50", "setting": "[1]", "result": 130, "unit": "nM"}, {"measurement": "EC50", "setting": "[2]", "result": 23, "unit": "nM"}]}, {"smiles": "CCOC(=O)c1cn(-c2c(F)cc(OC)cc2F)c(NC(=O)c2ccc(OC(F)F)cc2)n1", "note": "[WO2022076764, Example 38]", "values": [{"measurement": "EC50", "setting": "[1]", "result": 620, "unit": "nM"}, {"measurement": "EC50", "setting": "[2]", "result": 15, "unit": "nM"}]}, {"smiles": "COc1cc(F)c(-n2cc(-c3cccc(F)c3)nc2NC(=O)c2ccc(OC(F)F)cc2)c(F)c1", "note": "[WO2022076764, Example 10]", "values": [{"measurement": "EC50", "setting": "[1]", "result": 200, "unit": "nM"}, {"measurement": "EC50", "setting": "[2]", "result": 7, "unit": "nM"}]}, {"smiles": "COc1cccc(-c2cn(-c3c(F)cc(OC)cc3F)c(NC(=O)c3ccc(OC(F)F)cc3)n2)c1", "note": "[WO2022076764, Example 3]", "values": [{"measurement": "EC50", "setting": "[1]", "result": 88, "unit": "nM"}, {"measurement": "EC50", "setting": "[2]", "result": 8, "unit": "nM"}]}, {"smiles": "COc1cc(F)c(-n2cc(CC(C)C)nc2NC(=O)c2ccc(OC(F)F)cc2)c(F)c1", "note": "[WO2022076764, Example 35]", "values": [{"measurement": "EC50", "setting": "[1]", "result": 1400, "unit": "nM"}, {"measurement": "EC50", "setting": "[2]", "result": 99, "unit": "nM"}]}, {"smiles": "COc1ccc(-n2cc(C3CCCCC3)nc2NC(=O)c2ccc(OC(F)F)cc2)cc1", "note": "[WO2022076764, Example 27]", "values": [{"measurement": "EC50", "setting": "[1]", "result": 660, "unit": "nM"}, {"measurement": "EC50", "setting": "[2]", "result": 55, "unit": "nM"}]}, {"smiles": "COc1cc(F)c(-n2cc(-c3ccc(Cl)c(Cl)c3)nc2NC(=O)c2ccc(OC(F)F)cc2)c(F)c1", "note": "[WO2022076764, Example 18]", "values": [{"measurement": "EC50", "setting": "[1]", "result": 400, "unit": "nM"}, {"measurement": "EC50", "setting": "[2]", "result": 51, "unit": "nM"}]}, {"smiles": "CCS(=O)(=O)N1CCC(c2cn(-c3c(F)cc(OC)cc3F)c(NC(=O)c3ccc(OC(F)F)cc3)n2)CC1", "note": "[WO2022076764, Example 65]", "values": [{"measurement": "EC50", "setting": "[1]", "result": 320, "unit": "nM"}, {"measurement": "EC50", "setting": "[2]", "result": 81, "unit": "nM"}]}, {"smiles": "COc1cc(F)c(-n2cc(-c3ccc(F)c(F)c3)nc2NC(=O)c2ccc(OC(F)F)cc2)c(F)c1", "note": "[WO2022076764, Example 36]", "values": [{"measurement": "EC50", "setting": "[1]", "result": 320, "unit": "nM"}, {"measurement": "EC50", "setting": "[2]", "result": 31, "unit": "nM"}]}, {"smiles": "COc1ccc(-n2cc(C3CCCNC3)nc2NC(=O)c2ccc(OC(F)F)cc2)cc1", "note": "(stereo not given) [WO2022076764, Example 64]", "values": [{"measurement": "EC50", "setting": "[1]", "result": 210, "unit": "nM"}, {"measurement": "EC50", "setting": "[2]", "result": 11, "unit": "nM"}]}, {"smiles": "COc1cc(F)c(-n2cc(C3CC(NS(C)(=O)=O)C3)nc2NC(=O)c2ccc(OC(F)F)cc2)c(F)c1", "note": "(stereo not given) [WO2022076764, Example 83]", "values": [{"measurement": "EC50", "setting": "[1]", "result": 400, "unit": "nM"}, {"measurement": "EC50", "setting": "[2]", "result": 5, "unit": "nM"}]}, {"smiles": "COc1cc(F)c(-n2cc(-c3cccc(Cl)c3)nc2NC(=O)c2ccc(OC(F)F)cc2)c(F)c1", "note": "[WO2022076764, Example 12]", "values": [{"measurement": "EC50", "setting": "[1]", "result": 450, "unit": "nM"}, {"measurement": "EC50", "setting": "[2]", "result": 15, "unit": "nM"}]}, {"smiles": "COc1cc(F)c(-n2cc(-c3ccc(Cl)cc3)nc2NC(=O)c2ccc(OC(F)F)cc2)c(F)c1", "note": "[WO2022076764, Example 11]", "values": [{"measurement": "EC50", "setting": "[1]", "result": 140, "unit": "nM"}, {"measurement": "EC50", "setting": "[2]", "result": 24, "unit": "nM"}]}, {"smiles": "COc1cc(F)c(-n2cc(C(=O)N3CCOCC3)nc2NC(=O)c2ccc(OC(F)F)cc2)c(F)c1", "note": "[WO2022076764, Example 54]", "values": [{"measurement": "EC50", "setting": "[1]", "result": "> 10000", "unit": "nM"}, {"measurement": "EC50", "setting": "[2]", "result": 320, "unit": "nM"}]}, {"smiles": "COc1ccc(-n2cc(-c3ccc4c(c3)CCO4)nc2NC(=O)c2ccc(OC(F)F)cc2)cc1", "note": "[WO2022076764, Example 19]", "values": [{"measurement": "EC50", "setting": "[1]", "result": 93, "unit": "nM"}, {"measurement": "EC50", "setting": "[2]", "result": 28, "unit": "nM"}]}, {"smiles": "COc1cc(F)c(-n2c(NC(=O)c3ccc(OC(F)F)cc3)nc(-c3ccccc3)c2C)c(F)c1", "note": "[WO2022076764, Example 8]", "values": [{"measurement": "EC50", "setting": "[1]", "result": 230, "unit": "nM"}, {"measurement": "EC50", "setting": "[2]", "result": 8, "unit": "nM"}]}, {"smiles": "COc1ccc(-n2cc(C(C)(C)C)nc2NC(=O)c2ccc(OC(F)F)cc2)cc1", "note": "[WO2022076764, Example 32]", "values": [{"measurement": "EC50", "setting": "[1]", "result": 110, "unit": "nM"}, {"measurement": "EC50", "setting": "[2]", "result": 18, "unit": "nM"}]}, {"smiles": "COc1cc(F)c(-n2cc(-c3cccc(C#N)c3)nc2NC(=O)c2ccc(OC(F)F)cc2)c(F)c1", "note": "[WO2022076764, Example 17]", "values": [{"measurement": "EC50", "setting": "[1]", "result": 46, "unit": "nM"}, {"measurement": "EC50", "setting": "[2]", "result": 5, "unit": "nM"}]}, {"smiles": "CCOC(=O)c1cc(-c2cn(-c3ccc(OC)cc3)c(NC(=O)c3ccc(OC(F)F)cc3)n2)on1", "note": "[WO2022076764, Example 29]", "values": [{"measurement": "EC50", "setting": "[1]", "result": 32, "unit": "nM"}, {"measurement": "EC50", "setting": "[2]", "result": 15, "unit": "nM"}]}, {"smiles": "COc1cc(F)c(-n2cc(C(=O)N3CC[C@H](O)C3)nc2NC(=O)c2ccc(OC(F)F)cc2)c(F)c1", "note": "[WO2022076764, Example 57]", "values": [{"measurement": "EC50", "setting": "[1]", "result": 1900, "unit": "nM"}, {"measurement": "EC50", "setting": "[2]", "result": 120, "unit": "nM"}]}, {"smiles": "COc1cc(F)c(-n2cc(C(F)(F)C(F)(F)F)nc2NC(=O)c2ccc(OC(F)F)cc2)c(F)c1", "note": "[WO2022076764, Example 42]", "values": [{"measurement": "EC50", "setting": "[1]", "result": 57, "unit": "nM"}, {"measurement": "EC50", "setting": "[2]", "result": 48, "unit": "nM"}]}, {"smiles": "COc1cc(F)c(-n2cc(C(F)(F)F)nc2NC(=O)c2ccc(OC(F)F)cc2)c(F)c1", "note": "[WO2022076764, Example 43]", "values": [{"measurement": "EC50", "setting": "[1]", "result": 40, "unit": "nM"}, {"measurement": "EC50", "setting": "[2]", "result": 10, "unit": "nM"}]}, {"smiles": "CCOC(=O)c1cn(-c2ccc(OC)cc2)c(NC(=O)c2ccc(OC(F)F)cc2)n1", "note": "[WO2022076764, Example 30]", "values": [{"measurement": "EC50", "setting": "[1]", "result": 100, "unit": "nM"}, {"measurement": "EC50", "setting": "[2]", "result": 9, "unit": "nM"}]}, {"smiles": "COc1cc(F)c(-n2cc(C(=O)N3CCCC(O)C3)nc2NC(=O)c2ccc(OC(F)F)cc2)c(F)c1", "note": "(stereo not given) [WO2022076764, Example 51]", "values": [{"measurement": "EC50", "setting": "[1]", "result": 2900, "unit": "nM"}, {"measurement": "EC50", "setting": "[2]", "result": 83, "unit": "nM"}]}, {"smiles": "COc1cc(F)c(-n2cc(C(=O)N3CCNCC3)nc2NC(=O)c2ccc(OC(F)F)cc2)c(F)c1", "note": "[WO2022076764, Example 61]", "values": [{"measurement": "EC50", "setting": "[1]", "result": "> 10000", "unit": "nM"}, {"measurement": "EC50", "setting": "[2]", "result": 130, "unit": "nM"}]}, {"smiles": "COc1cc(F)c(-n2cc(C3CCOCC3)nc2NC(=O)c2ccc(OC(F)F)cc2)c(F)c1", "note": "[WO2022076764, Example 41]", "values": [{"measurement": "EC50", "setting": "[1]", "result": 230, "unit": "nM"}, {"measurement": "EC50", "setting": "[2]", "result": 26, "unit": "nM"}]}]}
